# Assay results reported in publication PMC3681555, “PPARγ as a sensor of lipase activity and a target for the lipase inhibitor orlistat” (Lipids in Health and Disease, 2013).
# Tests used:
# [1] = target: T1, PPARγ (Homo sapiens, UniProt P37231); assay: intact-protein LC-ESI-MS, covalent control (data not shown); format: binding
# T1 construct: gene PPARG
# T1 sequence (P37231 235-505 limits assumed): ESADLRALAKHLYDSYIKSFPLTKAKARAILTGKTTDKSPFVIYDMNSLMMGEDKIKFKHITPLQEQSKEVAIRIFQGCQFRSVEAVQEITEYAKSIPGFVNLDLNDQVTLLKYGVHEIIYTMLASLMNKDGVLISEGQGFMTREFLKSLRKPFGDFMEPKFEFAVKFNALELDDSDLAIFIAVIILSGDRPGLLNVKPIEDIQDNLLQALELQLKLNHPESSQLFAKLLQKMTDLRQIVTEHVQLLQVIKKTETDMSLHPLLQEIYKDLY
# [2] = target: T1, PPARγ; assay: competitive fluorescence polarization (PolarScreen PPARγ green kit); LC-MS shows no covalent adduct; format: binding
Compound,"intact-protein LC-ESI-MS, covalent control (data not shown) [1]",IC50 [2] [nM]
O=C(Nc1ccccc1)c1cc([N+](=O)[O-])ccc1Cl [GW9662],"Dithio-bis (2-nitrobenzoic acid) and GW9662, were also confirmed bind to PPARγ irreversibly (data not shown)",–
CCCCCCCCCCC[C@@H](C[C@@H]1OC(=O)[C@H]1CCCCCC)OC(=O)[C@H](CC(C)C)NC=O [Orlistat],–,2840
